In patent publication US20240084258A1, “METHOD FOR PREPARING BROWN ADIPOCYTE” (KYOTO PREFECTURAL PUBLIC UNIVERSITY CORPORATION, priority 2015, published 2024):

Key:
Assay type in all cases: cell-based
[1] = test system: human dermal fibroblasts (HDFs); test: UCP1 mRNA response of induced cells to Isoproterenol or FSK stimulation (Example 3); details: cells cultured 14 days with T3, Rosiglitazone and D4476, then 10 μM Isoproterenol or FSK for 5 hr; FIG. 3
Protocol: 10 μM Isoproterenol or FSK was added to these cells as described in the Figure. As a control, a group free of the addition was also prepared. After 5 hr, the culture medium was removed from each well by suction, the cells were washed with PBS(−) and total RNA was extracted from the cells with ISOGEN II. qRT-PCR was performed in the same manner as in Example 2. The mRNA level of UCP1 gene was quantified as a ratio to […] gene mRNA and calculated with the value of fibroblast cultured in the normal medium as 1.

[2] = test system: human dermal fibroblasts (HDFs); test: UCP1 protein immunostaining, comparison of four inhibitors (Example 16); details: ALK5 inhibitor II 4 μM, LY2157299 8 μM; for UCP1 protein expression by immunostaining (induction into brown adipocytes): SB431542 4 μM, D4476 4 μM up to Day 9, day 14, FIG. 16A, 16B
Protocol: Thereafter, the cells were cultured in an adipocyte induction medium free of any compound of ALK5 inhibitor II, SB431542, LY215799 and D4476 during Day 9-Day 14. On day 14, the medium was removed by suction from each well, and the cells were washed with PBS(−).

[3] = test system: human dermal fibroblasts (HDFs); test: UCP1 protein immunostaining, fluorescence intensity (Example 8); details: for UCP1 protein expression by immunostaining (conversion to brown adipocytes): induction medium + T3 + Rosiglitazone, D4476, SB431541, ALK5 inhibitor II, FSK 2 μM, PD0325901 1 μM, day 14, FIG. 8A-C
Protocol: (§1) The next day, the culture supernatant was removed by suction and, as described in the Figure, a normal medium, an adipocyte induction medium, or an adipocyte induction medium added with each compound and the like was added at 500 μL/well. […] The concentrations of the additives are as follows: • T3: 1 nM • Rosiglitazone: 1 μM • […]: 2 μM • SB431541: 2 μM • ALK5 inhibitor II: 2 μM • PD0325901: 1 μM • Forskolin (FSK): 2 μM. The culture medium was substituted by a fresh one every 3-4 days and the cells were cultured up to day 14. […] The cells were photographed at a magnification of 200 with a fluorescence microscope and the fluorescence intensity was measured.

[4] = test system: human dermal fibroblasts (HDFs); test: UCP1 gene mRNA, comparison of four inhibitors at 4-16 μM (Example 15); details: for induction efficiency into brown adipocytes (order): compound at 4, 8, 12 or 16 μM up to Day 9, UCP1 mRNA on day 14, FIG. 15; for UCP1 gene expression (conversion to brown adipocytes): compound at 4, 8, 12 or 16 μM up to Day 9, then without compound Day 9-14, FIG. 15
Protocol: (§2) (Day −1). In the control (Ctrl) group, the culture supernatant of the next day (Day 0) was removed by suction and the cells were cultured in a normal medium up to day 14 while substituting the medium with a fresh one once every other day. In groups other than the control (Ctrl) group, the culture supernatant was removed by suction on day 0, an adipocyte induction medium or an adipocyte induction medium added with any of ALK5 inhibitor II, SB431542, LY2157299 and D4476 at a concentration of 4 μM, 8 μM, 12 μM or 16 μM respectively was added at 1 mL/well.
Thereafter, the cells were cultured in an adipocyte induction medium free of any compound of ALK5 inhibitor II, SB431542, LY215799 and D4476 during Day 9-Day 14.

[5] = test system: human dermal fibroblasts (HDFs); test: BODIPY staining of lipid droplets (Example 7); details: induction medium + T3 + Rosiglitazone, compounds 2 μM, day 14, FIG. 7A, 7B
Protocol: as §1, with “each low-molecular-weight” for “each”, “II:” for “II: 2 μM • PD0325901: 1 μM • Forskolin (FSK):”

[6] = test system: human dermal fibroblasts (HDFs); test: Oil Red O staining of fibroblasts cultured with compounds (Example 1); details: adipocyte induction medium with T3 1 nM and Rosiglitazone 1 μM, D4476 2 μM, SB431542 2 μM, ALK5 Inhibitor II 2 M, Pifithrin alpha 5 μM, day 14, FIG. 1
Protocol: The next day, the culture supernatant was removed by suction and, as described in the Figure, a normal medium, an adipocyte induction medium, or an adipocyte induction medium added with the compound and the like was added at 500 μL/well.
The adipocyte induction medium is a 10% FBS-added DMEM+MDI medium (10% FBS-added DMEM supplemented with 0.5 mM isobutylmethylxanthine (IBMX), 0.5 μM dexamethason and 1 μg/mL Insulin).
The concentrations of the additives are as follows: • T3: 1 nM • Rosiglitazone: 1 μM • D4476: 2 μM • Pifithrin alpha [p53 inhibitor]: 5 μM • SB431542: 2 μM • ALK5 Inhibitor II: […].
The culture medium was substituted by a fresh one every 3-4 days and the cells were cultured up to day 14.
After washing 3 times with sterile distilled water, Oil Red O staining solution was added, and the mixture was incubated at room temperature for 15 min. Then, the cells were washed with sterile distilled water and photographed at a magnification of 100 with a phase contrast microscope.

[7] = test system: human dermal fibroblasts (HDFs); test: AdipoQ gene mRNA by real time RT-PCR (Example 6); details: induction medium + T3 + Rosiglitazone, D4476, SB431542, ALK5 Inhibitor II 2 μM, PD0325901 1 μM, day 14, FIG. 6
Protocol: (§3) This was seeded in a 24-well plate at a concentration of 1×10^4 cells/well (day 0), and culturing was started at 5% CO2/95% humid air, 37° C. The next day, the culture supernatant was removed by suction and, as described in the Figure, a normal medium, an adipocyte induction medium, or an adipocyte induction medium added with each low-molecular-weight compound and the like was added at 500 μL/well. […] The concentrations of the additives are as follows: • T3: 1 nM • Rosiglitazone: 1 μM • D4476: 2 μM. • Pifithrin alpha [p53 inhibitor]: 5 μM • PD0325901: 1 μM • SB431542: 2 μM • ALK5 Inhibitor II: 2 μM. The culture medium was substituted by a fresh one every 3-4 days and the cells were cultured up to day 14.

[8] = test system: human dermal fibroblasts (HDFs); test: UCP1 gene mRNA by real time RT-PCR (Example 2); details: induction medium + T3 + Rosiglitazone, D4476 2 μM, FSK 2 μM, PD0325901 1 μM, SB431542 2 μM, day 14, FIG. 2
Protocol: as §3, with “with each low-molecular compound and” for “with each low-molecular-weight compound and”, “D4476: 2 μM • Pifithrin” for “D4476: 2 μM. • Pifithrin”, “μM • Forskolin (FSK): 2 μM • PD0325901: 1” for “μM • PD0325901: 1”, “• SB431542: 2 μM.” for “• SB431542: 2 μM • ALK5 Inhibitor II: 2 μM.”

[9] = test system: human dermal fibroblasts (HDFs); test: CIDEA gene mRNA by real time RT-PCR (Example 4); details: induction medium + T3 + Rosiglitazone, compounds 2 μM, day 14, FIG. 4
Protocol: (§4) The next day, the culture supernatant was removed by suction and, as described in the Figure, a normal medium, an adipocyte induction medium, or an adipocyte induction medium added with each compound and the like was added at 500 μL/well. […] The concentrations of the additives are as follows: • T3: 1 nM • Rosiglitazone: 1 μM • D4476: 2 μM • Pifithrin alpha [p53 inhibitor]: 5 μM • SB431542: 2 μM • ALK5 Inhibitor II: 2 μM. The culture medium was substituted by a fresh one every 3 4 days and the cells were cultured up to day 14.

[10] = test system: human dermal fibroblasts (HDFs); test: UCP1, CIDEA and KCNK3 gene mRNA by real time RT-PCR (Example 17); details: ALK5 inhibitor II 4 μM or LY2157299 8 μM up to Day 9, day 14, FIG. 17
Protocol: as §2, with “and” for “an adipocyte induction medium or”, “II (4 μM) and” for “II, SB431542,”, “(8 μM)” for “and D4476 at a concentration of 4 μM, 8 μM, 12 μM or 16 μM respectively”
Thereafter, the cells were cultured in an adipocyte induction medium free of any compound of ALK5 inhibitor II and LY215799 during Day 9-Day 14. On day 14, the medium was removed by suction from the wells of all groups, and the cells were washed with PBS(−).

[11] = test system: human dermal fibroblasts (HDFs); test: PGC-1alpha gene mRNA by real time RT-PCR (Example 5); details: induction medium + T3 + Rosiglitazone, FSK 2 μM, PD0325901 1 μM, day 14, FIG. 5
Protocol: as §4, with “•” for “• D4476: 2 μM •”, “Forskolin (FSK):” for “SB431542:”, “PD0325901: 1” for “ALK5 Inhibitor II: 2”, “3-4” for “3 4”

Row | SMILES | UCP1 protein expression by immunostaining (induction into brown adipocytes) [2] | UCP1 protein expression by immunostaining (conversion to brown adipocytes) [3] | induction efficiency into brown adipocytes (order) [4] | UCP1 gene expression (conversion to brown adipocytes) [4] | Oil Red O staining [6] | mRNA expression of AdipoQ gene (conversion to brown adipocytes) [7] | mRNA expression of UCP1 gene (conversion to brown adipocytes) [8] | further results
1 | CC(C)NCC(O)c1ccc(O)c(O)c1 (centres unmarked) [Isoproterenol, isoproterenol] | – | – | – | – | – | – | – | UCP1 mRNA expression on stimulation [1]: more strongly express UCP1 mRNA
2 | NC(=O)c1ccc(-c2nc(-c3ccc4c(c3)OCO4)c(-c3ccccn3)[nH]2)cc1 [SB431542, 4-[4-(1,3-Benzodioxol-5-yl)-5-(pyridin-2-yl)-1H-imidazol-2-yl]benzamide] | induced into brown adipocytes expressing UCP1 protein | converted to brown adipocytes expressing UCP1 protein | ALK5 inhibitor II>LY2157299>SB431541>D4476 | converted to brown adipocytes strongly expressing UCP1 gene | Remarkable Oil Red O staining | converted to brown adipocytes expressing mRNA of AdipoQ gene | induced to brown adipocytes that express mRNA of UCP1 gene | lipid droplets stained with BODIPY (conversion to brown adipocytes) [5]: converted to brown adipocytes having lipid droplets stained with BODIPY; mRNA expression of CIDEA gene (conversion to brown adipocytes) [9]: converted to brown adipocytes expressing mRNA of CIDEA gene
3 | Cc1cccc(-c2nn3c(c2-c2ccnc4ccc(C(N)=O)cc24)CCC3)n1 [LY2157299, 4-[5,6-dihydro-2-(6-methyl-2-pyridinyl)-4H-pyrrolo[1,2-b]pyrazol-3-yl]-6-quinolinecarboxamide] | induced into brown adipocytes expressing UCP1 protein | – | second most strong | converted to brown adipocytes strongly expressing UCP1 gene | – | – | – | strength of induction of UCP1 expression (order) ([2]; immunostaining day 14, FIG. 16): second most strong; CIDEA gene expression [10]: induced into brown adipocytes expressing UCP1 gene, CIDEA gene and KCNK3 gene; KCNK3 gene expression [10]: induced into brown adipocytes expressing UCP1 gene, CIDEA gene and KCNK3 gene; UCP1 gene expression [10]: induced into brown adipocytes expressing UCP1 gene, CIDEA gene and KCNK3 gene
4 | O=C(NOC[C@H](O)CO)c1ccc(F)c(F)c1Nc1ccc(I)cc1F [PD0325901] | – | converted to brown adipocytes expressing UCP1 protein | – | – | – | converted to brown adipocytes expressing mRNA of AdipoQ gene | induced to brown adipocytes that express mRNA of UCP1 gene | change of expression of UCP-1 protein by addition culture ([3]; PD0325901 1 μM or Forskolin 2 μM, day 14, FIG. 8B): increases; mRNA expression of PGC-1alpha gene (conversion to brown adipocytes) [11]: converted to brown adipocytes expressing mRNA of PGC-1alpha gene
5 | Cc1ccc(C(=O)Cn2c3c(sc2=N)CCCC3)cc1 [Pifithrin alpha] | – | – | – | – | hardly observed | – | – | –
